Reference: patent publication US7449474B2, “Tri-substituted ureas as cytokine inhibitors” (The Procter & Gamble Company, priority 2004, dated 2008)

Each compound was assayed on TNF-α (assay: Inhibition of TNF-α in lipopolysaccharide (LPS) stimulated human monocytic THP-1 cells). Conditions: LPS (1 μg/mL) stimulated THP-1 cells, 4 hours incubation, human TNF-α by ELISA.
Type: cell-based
From the text: In addition, Tumor Necrosis Factor, TNF-α, inhibition can be measured by utilizing lipopolysaccharide (LPS) stimulated human monocytic cells (THP-1) as described in: • i) K. M. Mohler et al., “Protection Against a Lethal Dose of Endotoxin by an Inhibitor of Tumour Necrosis Factor Processing”, Nature, 370, pp 218-220 (1994). • ii) U.S. Pat. No. 6,297,381 B1 Cirillo et al., issued Oct. 2, 2001, incorporated by reference and reproduced herein below in relevant portion thereof.
The inhibition of cytokine production can be observed by measuring inhibition of TNF-α in lipopolysaccharide stimulated THP-1 cells. All cells and reagents are diluted in RPMI 1640 with phenol red and L-glutamine, supplemented with additional L-glutamine (total: 4 mM), penicillin and streptomycin (50 units/mL each) and fetal bovine serum (FBS 3%) (GIBCO, all conc. Final). Assay is performed under sterile conditions, only test compound preparation is non-sterile. Initial stock solutions are made in DMSO followed by dilution into RPMI 1640 2-fold higher than the desired final assay concentration. Confluent THP-1 cells ([…], final conc.; American Type Culture Company, Rockville, Md.) are added to 96 well polypropylene round bottomed culture plates (Costar 3790; sterile) containing 125 μL test compound (2-fold concentrated) or DMSO vehicle (controls, blanks). DMSO concentration should not exceed 0.2% final. Cell mixture is allowed to preincubate for 15 minutes at 37° C., 5% CO2 prior to stimulation with lipopolysaccharide (LPS, 1 μg/mL final; Sigma L-2630, from E. coli serotype 0111.B4; stored as 1 mg/mL stock in endotoxin screened diluted H2O vehicle at −80° C.). Blanks (unstimulated) receive H2O vehicle; final incubation volume is 250 μL. Incubation (4 hours) proceeds as described above. Assay is to be terminated by centrifuging plates 5 minutes at room temperature, 1600 rpm ([…]); supernatants are then transferred to clean 96 well plates and stored at −80° C. until analyzed for human TNF-α by a commercially available ELISA kit (Biosource #KHC3015, Camarillo, Calif.). The calculated IC50 value is the concentration of the test compound that caused a 50% decrease in the maximal TNF-α production.

SMILES	IC50 [nM]
CCNC(=O)N(c1ccc(OCC)cc1)c1ccnc(N[C@@H](C)COC)n1 [1-(4-Ethoxyphenyl)-1-{2-[(1S)-2-methoxy-1-methyl-ethylamino]-pyrimidin-4-yl}-3-ethyl-urea]	276
CCNC(=O)N(c1ccc(F)cc1)c1ccnc(NC2CCOCC2)n1 [1-(4-Fluorophenyl)-1-[2-(tetrahydro-pyran-4-ylamino)-pyrimidin-4-yl]-3-ethyl-urea]	86
CCCCNC(=O)N(c1ccc(OC)cc1)c1ccnc(N[C@@H](C)COC)n1 [1-(4-Methoxyphenyl)-1-{2-[(1S)-2-methoxy-1-methyl-ethylamino]-pyrimidin-4-yl}-3-butyl-urea]	324
CCNC(=O)N(c1ccc(OC)cc1)c1ccnc(N[C@@H](C)COC)n1 [1-(4-Methoxyphenyl)-1-{2-[(1S)-2-methoxy-1-methyl-ethylamino]-pyrimidin-4-yl}-3-ethyl-urea]	666

Now those with a lower IC50, led by results:

IC50 [nM]	SMILES
30	CCNC(=O)N(c1ccc(F)cc1)c1ccnc(N[C@@H](C)C(C)(C)O)n1 [1-(4-Fluorophenyl)-1-{2-[(1S)-2-hydroxy-1,2-dimethyl-propylamino]-pyrimidin-4-yl}-3-ethyl-urea]
28	CCNC(=O)N(c1ccc(F)cc1)c1ccnc(NC(C)C)n1 [1-(4-Fluorophenyl)-1-[2-(iso-propylamino)-pyrimidin-4-yl]-3-ethyl-urea]
26	CCNC(=O)N(c1ccc(SC)cc1)c1ccnc(N[C@@H](C)COC)n1 [1-(4-Methylsulfanylphenyl)-1-{2-[(1S)-2-methoxy-1-methyl-ethylamino]-pyrimidin-4-yl}-3-ethyl-urea]
16	CCNC(=O)N(c1ccc(OC)cc1)c1ccnc(N[C@@H](C)C(C)(C)O)n1 [1-(4-Methoxyphenyl)-1-{2-[(1S)-2-hydroxy-1,2-dimethyl-propylamino]-pyrimidin-4-yl}-3-ethyl-urea]
